Source: US8530465B2, “1, 2-disubstituted amido-anthraquinone derivatives, preparation method and application thereof” (National Defense Medical Center, priority 2010, dated 2013)

Columns and labels:
hTERT = experiment: Secreted alkaline phosphatase (SEAP) assay, PhTERT-SEAP (H1299); assay type: cell-based; conditions: Homo sapiens, 24 hours; for activity at 1 µM: NCI-H1299, Conc. 1 μM, read-out: Relative SEAP activity (%); for activity at 10 µM: NCI-H1299, Conc. 10 μM; for activity at 10 µM / activity at 100 µM: read-out: Relative SEAP activity (%) (converted); for activity at 100 µM: NCI-H1299, Conc. 100 μM
Procedure: H1299 were grown in RPMI 1640 media supplemented with 10% fetal bovine serum, 100 units/mL penicillin and […] streptomycin in a humidified atmosphere with 5% CO2 at 37° C. Culture media were changed every three days. To establish stable cell lines that the expression of hTERT could be monitored by a reporter system, a about 3.3 kbp DNA fragment ranging from −3338 to +1 bp of the hTERT gene (hTERT promoter, PhTERT) was subcloned upstream to a secreted alkaline phosphatase gene (SEAP) and transfected into H1299 by electroporation. The stable clones were selected using G418. The stable clones derived from H1299 were cultured using conditions that are similar to their parental cells.
Secreted alkaline phosphatase was used as the reporter system to monitor the transcriptional activity of hTERT. Here, about 10^4 cells each were grown in 96-well plates and incubated at 37° C. for 24 hours and changed with fresh media. Varying amounts of drugs were added and cells were incubated for another 24 hours. Culture media were collected and heated at 65° C. for 10 min to inactivate heat-labile phosphatases. An equal amount of SEAP buffer (2 M diethanolamine, 1 mM MgCl2, and 20 mM L-homoarginine) was added to the media and p-nitrophenyl phosphate was added to a final concentration of 12 mM. Absorptions at 405 nm were taken, and the rate of absorption increase is determined (the increasing rate of absorbance at 405 nm was used to represent the activity of SEAP).

[1] = MTT assay, PhTERT-SEAP (H1299); assay type: cell-based, human; conditions: human, H1299 cells carrying the PhTERT-SEAP reporter, PhTERT-SEAP (H1299); for viability at 1 μM: Conc. 1 μM, read-out: Relative MTT viability (%); for viability at 10 μM: Conc. 10 μM; for viability at 10 μM / viability at 100 μM: read-out: Relative MTT viability (%) (converted); for viability at 100 μM: Conc. 100 μM
Procedure: Further, cells were subjected to MTT assay to compare the relative toxicity or effect of each compound on cell proliferation and activity.
The above-described cells are cultured in a 96-well plate, to which was added with 25 μl MTT solution, and cultured in a 37° C. carbon dioxide incubator for 4 hours. Then, 100 μl Lysis buffer is added and incubated in a 37° C. carbon dioxide incubator overnight. An ELISA reader (Bio-Rad Model 450) is used to read optical density (O.D.) at 550 nm.

Structure (SMILES): Nc1ccc2c(c1N)C(=O)c1ccccc1C2=O [1,2-diaminoanthraquinone, reference compound]
- activity at 1 µM (hTERT): 98.5 ± 11.7%
- activity at 10 µM (hTERT): 77.3%
- activity at 100 µM (hTERT): 18.2%

Structure (SMILES): O=C(CCCl)Nc1ccc2c(c1NC(=O)CCCl)C(=O)c1ccccc1C2=O [CC-02, 1,2-bis-(3-chloropropionamido)-anthraquinone]
- viability at 1 μM [1]: 101 ± 4.37%
- viability at 10 μM [1]: 83.8%
- viability at 100 μM [1]: 5.38%
- activity at 1 µM (hTERT): 96.3 ± 3.31%
- activity at 10 µM (hTERT): 94.7%
- activity at 100 µM (hTERT): 16%
- melting point: 179 to 180 °C

Structure (SMILES): O=C(CCCCl)Nc1ccc2c(c1NC(=O)CCCCl)C(=O)c1ccccc1C2=O [CC-03, 1,2-bis-(4-chlorobutyramido)-anthraquinone]
- viability at 1 μM [1]: 103 ± 7.01%
- viability at 10 μM [1]: 79.9%
- viability at 100 μM [1]: 19%
- activity at 1 µM (hTERT): 114 ± 6.14%
- activity at 10 µM (hTERT): 92.9%
- activity at 100 µM (hTERT): 15.2%
- melting point: 154 to 155 °C

Structure (SMILES): Nc1c(NC(=O)CCl)ccc2c1C(=O)c1ccccc1C2=O [CC-05, 1-(amino)-2-(chloroacetamido)-anthraquinone]
- viability at 1 μM [1]: 64.3 ± 8.97%
- activity at 1 µM (hTERT): 42 ± 4.16%
- activity at 10 µM (hTERT): 6.73 ± 0.83%
- activity at 100 µM (hTERT): 3.23 ± 1.22%
- melting point: 193 to 194 °C

Structure (SMILES): O=C(CCl)Nc1ccc2c(c1NC(=O)CCCl)C(=O)c1ccccc1C2=O [CC-07, 1-[(3-chloropropanyl)amido]-2-(chloroacetamido)-anthraquinone]
- viability at 1 μM [1]: 103 ± 7.01%
- viability at 10 μM [1]: 79.9%
- viability at 100 μM [1]: 19%
- activity at 1 µM (hTERT): 114 ± 6.14%
- activity at 10 µM (hTERT): 92.9%
- activity at 100 µM (hTERT): 15.2%
- melting point: 182 to 183 °C

Structure (SMILES): O=C(CCl)Nc1ccc2c(c1NC(=O)CCCCl)C(=O)c1ccccc1C2=O [CC-08, 1-[(4-chlorobutanyl)amido]-2-(chloroacetamido)-anthraquinone]
- viability at 1 μM [1]: 100 ± 4.4%
- viability at 10 μM [1]: 117%
- viability at 100 μM [1]: 62%
- activity at 1 µM (hTERT): 108 ± 9.03%
- activity at 10 µM (hTERT): 97.1%
- activity at 100 µM (hTERT): 30.9%
- melting point: 163 to 164 °C

Structure (SMILES): O=C(CCl)Nc1ccc2c(c1NC(=O)c1ccccc1)C(=O)c1ccccc1C2=O [CC-09, 1-(benzamido)-2-(chloroacetamido)-anthraquinone]
- viability at 1 μM [1]: 101 ± 4.37%
- viability at 10 μM [1]: 83.8%
- viability at 100 μM [1]: 5.38%
- activity at 1 µM (hTERT): 96.3 ± 3.31%
- activity at 10 µM (hTERT): 94.7%
- activity at 100 µM (hTERT): 16%
- melting point: 203 to 204 °C

Structure (SMILES): Cc1ccccc1C(=O)Nc1c(NC(=O)CCl)ccc2c1C(=O)c1ccccc1C2=O [CC-10, 1-(2-methylbenzamido)-2-(chloroacetamido)-anthraquinone]
- viability at 1 μM [1]: 73.8 ± 7.94%
- activity at 1 µM (hTERT): 98.6 ± 7.92%
- activity at 10 µM (hTERT): -3.13%
- activity at 100 µM (hTERT): -5.69%
- melting point: 179 to 180 °C

Structure (SMILES): Cc1cccc(C(=O)Nc2c(NC(=O)CCl)ccc3c2C(=O)c2ccccc2C3=O)c1 [CC-11, 1-(3-methylbenzamido)-2-(chloroacetamido)-anthraquinone]
- viability at 1 μM [1]: 72.8 ± 3.83%
- viability at 10 μM [1]: 0.7%
- activity at 1 µM (hTERT): 116 ± 14.8%
- activity at 10 µM (hTERT): -1.91%
- activity at 100 µM (hTERT): -3.1%
- melting point: 202 to 203 °C

Structure (SMILES): O=C(CCl)Nc1ccc2c(c1NC(=O)c1ccccc1F)C(=O)c1ccccc1C2=O [CC-13, 1-(2-fluorobenzamido)-2-(chloroacetamido)-anthraquinone]
- viability at 1 μM [1]: 78.8 ± 7.83%
- viability at 10 μM [1]: 2.77%
- activity at 1 µM (hTERT): 105 ± 12.7%
- activity at 10 µM (hTERT): 5.89%
- activity at 100 µM (hTERT): 2.11%
- melting point: 245 to 246 °C

Structure (SMILES): O=C(CCl)Nc1ccc2c(c1NC(=O)c1ccccc1Cl)C(=O)c1ccccc1C2=O [CC-16, 1-(2-chlorobenzamido)-2-(chloroacetamido)-anthraquinone]
- viability at 1 μM [1]: 102 ± 4.26%
- viability at 10 μM [1]: 6.63%
- activity at 1 µM (hTERT): 81.6 ± 48.2%
- activity at 10 µM (hTERT): 5.35%
- activity at 100 µM (hTERT): 1.23%
- melting point: 193 to 194 °C

Structure (SMILES): O=C(CCl)Nc1ccc2c(c1NC(=O)c1cccc(Cl)c1)C(=O)c1ccccc1C2=O [CC-17, 1-(3-chlorobenzamido)-2-(chloroacetamido)-anthraquinone]
- viability at 1 μM [1]: 89.7 ± 2.74%
- viability at 10 μM [1]: 5.08%
- activity at 1 µM (hTERT): 80.9 ± 3.9%
- activity at 10 µM (hTERT): 6.65%
- activity at 100 µM (hTERT): 3.51%
- melting point: 188 to 189 °C

Structure (SMILES): O=C(CCl)Nc1ccc2c(c1NC(=O)c1ccc(Cl)cc1)C(=O)c1ccccc1C2=O [CC-18, 1-(4-chlorobenzamido)-2-(chloroacetamido)-anthraquinone]
- viability at 1 μM [1]: 92.4 ± 7.16%
- viability at 10 μM [1]: 5.17%
- viability at 100 μM [1]: 4.25%
- activity at 1 µM (hTERT): 98.7 ± 5.6%
- activity at 10 µM (hTERT): 6.26%
- activity at 100 µM (hTERT): 4.95%
- melting point: 224 to 225 °C

Structure (SMILES): O=C(CCl)Nc1ccc2c(c1NC(=O)c1ccccc1C(F)(F)F)C(=O)c1ccccc1C2=O [CC-19, 1-[2-(trifluoromethyl)benzamido]-2-(chloroacetamido)-anthraquinone]
- viability at 1 μM [1]: 93.2 ± 2.95%
- viability at 10 μM [1]: 3.42%
- activity at 1 µM (hTERT): 93.5 ± 6.11%
- activity at 10 µM (hTERT): 4.89%
- activity at 100 µM (hTERT): 2.4%
- melting point: 248 to 250 °C

Structure (SMILES): O=C(CCl)Nc1ccc2c(c1NC(=O)c1cccc(C(F)(F)F)c1)C(=O)c1ccccc1C2=O [CC-20, 1-[3-(trifluoromethyl)benzamido]-2-(chloroacetamido)-anthraquinone]
- viability at 1 μM [1]: 94.7 ± 3.59%
- viability at 10 μM [1]: 5.15%
- viability at 100 μM [1]: 3.37%
- activity at 1 µM (hTERT): 99.8 ± 4.15%
- activity at 10 µM (hTERT): 4.53%
- activity at 100 µM (hTERT): 0.32%
- melting point: 190 to 191 °C

Structure (SMILES): O=C(CCl)Nc1ccc2c(c1NC(=O)c1ccc(C(F)(F)F)cc1)C(=O)c1ccccc1C2=O [CC-21, 1-[4-(trifluoromethyl)benzamido]-2-(chloroacetamido)-anthraquinone]
- viability at 1 μM [1]: 86.3 ± 2.6%
- viability at 10 μM [1]: 6.58%
- activity at 1 µM (hTERT): 85.9 ± 8%
- activity at 10 µM (hTERT): 8.61 ± 0.0611%
- activity at 100 µM (hTERT): 6.49%
- melting point: 203 to 204 °C

Structure (SMILES): O=C(CCl)Nc1ccc2c(c1NC(=O)c1cc(C(F)(F)F)ccc1C(F)(F)F)C(=O)c1ccccc1C2=O [CC-22, 1-1-[2,5-bis-(trifluoromethyl)benzamido]-2-(chloroacetamido)-anthraquinone]
- viability at 1 μM [1]: 86.7 ± 2.13%
- viability at 10 μM [1]: 8.81%
- activity at 1 µM (hTERT): 90.3 ± 1.77%
- activity at 10 µM (hTERT): 5.11%
- activity at 100 µM (hTERT): 4.11%
- melting point: 187 to 188 °C

Structure (SMILES): O=C(CCl)Nc1ccc2c(c1NC(=O)Cc1ccc(F)cc1)C(=O)c1ccccc1C2=O [CC-24, 1-[2-(4-fluorophenyl)acetylamino]-2-(chloroacetamido)-anthraquinone]
- viability at 1 μM [1]: 88.9 ± 5.07%
- viability at 10 μM [1]: 7.31%
- viability at 100 μM [1]: 6.17%
- activity at 1 µM (hTERT): 93.1 ± 5.96%
- activity at 10 µM (hTERT): 8.4%
- activity at 100 µM (hTERT): 1.75%
- melting point: 213 to 214 °C

Structure (SMILES): O=C(CCl)Nc1ccc2c(c1NC(=O)C1CC1)C(=O)c1ccccc1C2=O [CC-25, 1-[(cyclopropanecarbonyl)amino]-2-(chloroacetamido)-anthraquinone]
- viability at 1 μM [1]: 88.7 ± 3.92%
- activity at 1 µM (hTERT): 83.8 ± 2.67%
- activity at 10 µM (hTERT): 3.46%
- activity at 100 µM (hTERT): 1.38%
- melting point: 191 to 192 °C

Structure (SMILES): O=C(CCl)Nc1ccc2c(c1NC(=O)C1CCCCC1)C(=O)c1ccccc1C2=O [CC-26, 1-[(cyclohexanecarbonyl)amino]-2-(chloroacetamido)-anthraquinone]
- viability at 1 μM [1]: 82.3 ± 4.4%
- viability at 10 μM [1]: 1.54%
- activity at 1 µM (hTERT): 82.5 ± 4.53%
- activity at 10 µM (hTERT): 3.07%
- activity at 100 µM (hTERT): 1.76%
- melting point: 216 to 217 °C

Structure (SMILES): O=C(CCl)Nc1ccc2c(c1NC(=O)c1ccco1)C(=O)c1ccccc1C2=O [CC-27, 1-[(2-furoyl)amino]-2-(chloroacetamido)-anthraquinone]
- viability at 1 μM [1]: 80.4 ± 3.56%
- activity at 1 µM (hTERT): 84.7 ± 23.3%
- activity at 10 µM (hTERT): 2.94%
- activity at 100 µM (hTERT): 2.62%
- melting point: 211 to 212 °C

Structure (SMILES): O=C(CCl)Nc1ccc2c(c1NC(=O)c1cccs1)C(=O)c1ccccc1C2=O [CC-28, 1-[(2-thiophenecarbonyl)amino]-2-(chloroacetamido)-anthraquinone]
- activity at 1 µM (hTERT): 5.81 ± 23.3%
- activity at 10 µM (hTERT): 3.03%
- activity at 100 µM (hTERT): 2.2%
- melting point: 190 to 191 °C

Structure (SMILES): O=C1c2c(O)ccc(O)c2C(=O)c2c(NCCNCCO)ccc(NCCNCCO)c21 [mitoxantrone, reference compound]
- activity at 1 µM (hTERT): 20.8 ± 1.56%
- activity at 10 µM (hTERT): 9.92%
- activity at 100 µM (hTERT): 7.19%
